According to publication PMC9525908, “α-Crystallin chaperone mimetic drugs inhibit lens γ-crystallin aggregation: Potential role for cataract prevention” (The Journal of Biological Chemistry, 2022):

How the values were obtained:
[1] = biological target: T1, HγD (Homo sapiens, UniProt P07320); details: 600 μM drug C, tested by an outside laboratory; cited from earlier work
T1 construct: made in house; host or cells: E. coli BL21(DE3) pLysS, pET3d vector
T1 sequence (P07320 1-174): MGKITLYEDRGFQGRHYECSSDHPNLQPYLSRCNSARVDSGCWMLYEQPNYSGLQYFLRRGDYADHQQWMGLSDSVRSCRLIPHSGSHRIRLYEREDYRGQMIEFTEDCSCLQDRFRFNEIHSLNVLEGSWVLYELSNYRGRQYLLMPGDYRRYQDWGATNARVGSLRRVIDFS

[2] = biological target: T2, 15N-labeled HyD (Homo sapiens, UniProt P07320); test: NMR HSQC of 15N-labeled HyD with drug C; format: binding; details: 100 μM protein, 600 μM drug C, 5% DMSO
T2 sequence (P07320 1-174): T1 sequence (P07320 1-174)

[3] = biological target: T3, HγD-ox (Homo sapiens, UniProt P07320); test: Thermal unfolding (Tm) of oxidized HγD; format: biochemical; details: 100 μM agent, 360/320 nm ratio; 68 ± 0.07 °C without agent
T3 construct: made in house; host or cells: Escherichia coli BL21(DE3) pLysS, pET3d vector
T3 sequence (P07320 1-174): T1 sequence (P07320 1-174)
Text: In postsubmission experiments, we attempted to find mechanistic clues relevant to the use of an H2O2 oxidation step prior to the thermal stress used during the initial drug screen. For this reason, we did a comparative study of oxidized (HγD-ox) versus native HγD (HyD-nat), hypothesizing that bis-ANS would both act like the drugs and provide information on the role of exposed hydrophobicity ([40]). HγD was oxidized in diethylenetriaminepentaacetic acid […] phosphate buffer to facilitate hydroxyl radical formation and protein damage, followed by dialysis against DTPA-treated buffer to eliminate the known proaggregating effects of divalent metals ([32]) in the subsequent steps. […] Overall protective effects were more pronounced for the oxidized than nonoxidized form of HγD. […] In the hope to obtain clues on the impact of bis-ANS, drugs C, G, and M on protein aggregation status, native PAGE was performed (Fig. 3G). Polymers greater than 250 kD are present in unheated HγD-nat but only the size of 75 to 100 kD in HγD-ox. […] Other techniques will be needed to assess the relationship between drugs and aggregate size.
(§1) Thermal denaturation study was monitored using fluorescence spectroscopy. Protein solutions (10 μM) in the presence and absence of drugs or bis-ANS (100 μM) were heated continuously from 30 to 95 °C, and the fluorescence data were collected every 5 °C after 1 min equilibration at the given temperature. Unfolding data were fit to Greene and Pace’s two-state model ([82]) using GraphPad Prism software (GraphPad Software, Inc).

[4] = biological target: T4, WT-HγD crystallin (Homo sapiens, UniProt P07320); test: Thermal unfolding of WT-HγD by fluorescence ratio (Tm); format: biochemical; details: for Tm: 10 μM WT-HγD, 100 μM drug, fluorescence ratio 360/330 nm, control 81 °C; for Tm of HγD-nat: 100 μM agent, 360/320 nm ratio, 78 ± 0.1 °C without agent; for Elevation of Tm of HγD: versus control 81 °C
T4 construct: made in house; host or cells: E. coli BL21(DE3) pLysS, pET3d vector
T4 sequence (P07320 1-174): T1 sequence (P07320 1-174)
Text: His-tag free recombinant HγD crystallin produced in Escherichia coli using pET3d or pET17b expression vector was used to investigate the effects of compounds C and G against thermal-induced unfolding and aggregate formation. The antiaggregation potency of drug C and G was reconfirmed by dynamic light scattering (DLS) (Fig. 2A). […] There is a decrease in the size of aggregates from as high as 7261 nm without drugs to 30.5 nm with drug C and 84.9 nm with drug G. Drug M has moderate activity with mean aggregate size of 569 nm radius (Table S2). […] Furthermore, we investigated whether these drugs can prevent thermal unfolding of HγD (Fig. 2C). […] It is the temperature at which 50% of the protein unfolds.
as §1

Structure (SMILES) | Effect on heat-mediated aggregation of HγD [1] | HSQC spectra, drug-treated versus control sample [2] | Tm of HγD-ox [3] | Tm [4] [°C] | Tm of HγD-nat [4] | Elevation of Tm of HγD [4] [°C]
Cc1cc(C(C#N)c2ccc(Cl)cc2)c(Cl)cc1NC(=O)c1cc(I)cc(I)c1O (stereo not shown) [drug C, Closantel] | worsening | no significant differences | increased all Tm values to the maximum value | 85 | increased all Tm values to the maximum value | 4
CC(C)=CCC[C@]1(C)C=Cc2c(O)c3c(c(CC=C(C)C)c2O1)O[C@]12C(=C[C@@H]4C[C@H]1C(C)(C)O[C@@]2(C/C=C(/C)C(=O)O)C4=O)C3=O [drug G, Gambogic acid] |  |  | increased all Tm values to the maximum value | 85 | increased all Tm values to the maximum value | 4
